# Data published in article PMC8596998, “The Introduction of a Cysteine Residue Modulates The Mechanical Properties of Aromatic‐Based Solid Aggregates and Self‐Supporting Hydrogels” (Chemistry (Weinheim an Der Bergstrasse, Germany), 2021).
# Square brackets hold non-standard residues; d marks the D form. Ends that are not written are not given here. Peptide text beside a SMILES is read from it. AEEA = NCCOCCOCC(=O)O
# Columns and labels:
# [1] = Water solubility of peptides; assay type: physicochemical
# Source text: Both the peptide derivatives were synthetized using solid phase peptide synthesis protocols (SPPS) with Fmoc/OtBu strategy. After their purification by RP‐HPLC chromatography, peptides were characterized by ESI mass spectrometry (see Figure S8). The logP values, estimated using the ACD Lab ChemSketch software, predict the intrinsic water solubility of peptides. […] A diametric behaviour was noted using the organic solvent 1,1,1,3,3,3‐hexafluoro‐isopropan‐2‐ol (HFIP).[[11a], [12]] Indeed, in HFIP the peptide FYFCFYF is highly soluble (up to 200 mg/mL), whereas PEG8‐FYFCFYF is moderately soluble (up to 5 mg/mL). According to their different solubility, peptide solutions were prepared using two approaches: PEG8‐FYFCFYF solutions were prepared by a direct dissolution of the lyophilized powder in water, whereas FYFCFYF ones were obtained by dilution in water of a HFIP stock solution (100 mg/mL). […] Peptide concentration was then analytically quantified using UV‐Vis spectroscopy. Preliminarily, we evaluated the capability of both the peptides to aggregate in solution (at 2.0 mg/mL) using the Dynamic Light Scattering (DLS) technique. […] The formation of nanoarchitectures was further investigated by fluorescence spectroscopy. Despite the presence of four Phe residues in the peptides, their self‐assembling propensity cannot be evaluated by simply considering the Phe excimer formation. […]
# [2] = Gelification, inverted test tube (CGC, gelation time, shelf stability, syneresis); assay type: physicochemical
# Source text: Interconnected fibers network can generate self‐supporting hydrogels as a consequence of additional physical cross‐linking phenomena or chemical modifications. In the specific case of peptide‐based HGs, these materials are formed by further entanglement of supramolecular fibrillary structures, which can be induced by increasing the total sample concentration, and as a consequence, the number of fibers and their mutual contacts.[21] During the preparation of FYFCFYF solutions, we observed a viscosity degree that increases proportionally to the peptide concentration. […] As reported in Figure S12, the critical gelation concentration (CGC) for FYFCFYF can be identified in the range 0.5 wt%<CGC<1.0 wt%. […] However, the characterization of others analogues of (FY)3 and PEG8‐(FY)3 [eg. (F‐Dopa)3 and (Nal‐Dopa)3 and their PEGylated versions PEG8‐(F‐Dopa)3 and PEG8‐(Nal‐Dopa)3] highlighted a diametrically opposed behavior respect to (FY)3.[10] All these evidences point out the importance of the hydrophilic/hydrophobic balance in the peptide sequence in the gelification process. Moreover, it is possible that the Cys side chain plays a role in the confinement and retention of water molecules in the gel. The stability of the FYFCFYF hydrogel (macroscopically evaluated in terms of homogeneity, opacity and reproducibility) and its capability to hold water (as difference between the weight of the matrix before and after an incubation in water overnight at room temperature) were evaluated by the swelling value q (See Equation (1)).[22] […] The shelf stability was also evaluated via inverted test tube. […]
# The formation of an additional chemical network affects also on the CGC and swelling features. […] The efficiency of oxidation procedure was evaluated using the well‐assessed Ellman's test.[24] Ellman's reagent (5,5’‐dithio‐bis‐(2‐nitrobenzoic acid)) also known as DTNB, is a chromogenic compound used to quantify free sulfhydryl groups in solution. […] Thus, free thiol concentration can be indirectly determined by TNB UV‐Vis absorption at 412 nm. […]
solubility [1],shelf stability ([2]; hydrogel 1.0 wt%),shelf stability ([2]; hydrogel 1.5 wt%),shelf stability ([2]; hydrogel 2.0 wt%),Compound
~10000 µg/mL,–,–,–,NCCOCCOCC(=O)NCCOCCOCC(=O)NCCOCCOCC(=O)NCCOCCOCC(=O)N[C@@H](Cc1ccccc1)C(=O)N[C@@H](Cc1ccc(O)cc1)C(=O)N[C@@H](Cc1ccccc1)C(=O)N[C@@H](CS)C(=O)N[C@@H](Cc1ccccc1)C(=O)N[C@@H](Cc1ccc(O)cc1)C(=O)N[C@@H](Cc1ccccc1)C(N)=O [PEG8‐FYFCFYF] (H-[AEEA][AEEA][AEEA][AEEA]FYFCFYF-NH2)
240 µg/mL,20 days,up to 40 days,up to 65 days,FYFCFYF-NH2 [FYFCFYF]
